According to patent publication US20110236406A1, “IMMUNOGENIC COMPOSITIONS COMPRISING HMGB1 POLYPEPTIDES” (MedImmune, LLC, priority 2004, published 2011):
“Also recorded” adds a separate entry of the source. No end group written: not given here. *: point of attachment. Biotin = O=C1N[C@H]2[C@H](CS[C@H]2CCCCC(=O)*)N1

Assays:
[1] = system: human monocyte-derived DCs; experiment: Cytokine and chemokine secretion by human immature monocyte-derived DCs (ELISA); type: cell-based; design: key to TNFα / IL-18 / IL-8 / IL-10 / IL-6 / IL-12: + indicates increase; − indicates no change compared to medium; details: for secretion of IL-6 / secretion of IL-8 / secretion of IL-12 (p70) / secretion of IL-18 / secretion of TNF-α: Example 2, peptides 200 μg/ml, HMGB1-Bx 50 μg/ml, polymyxin B, 48 h; for secretion of IL-6: FIG. 8A, 8B; for secretion of IL-8 / secretion of IL-12 (p70) / secretion of IL-18 / secretion of TNF-α: FIG. 8C; for IL-6 / IL-8 / IL-10 / IL-12 / IL-18 / TNFα: HUMAN DC, ELISA 48 h after exposure, compared to medium
Description: (§1) PBMCs were isolated from the blood of normal volunteers (Long Island Blood Services, Melville, N.Y.) over a Ficoll-Hypaque (Amersham Biosciences, Uppsala, Sweden) density gradient. CD14^+ monocytes were isolated from PBMCs by positive selection using anti-CD14 beads (Miltenyi Biotech., Auburn, Calif.) following the manufacturer's instructions. To generate DCs, CD14^+ cells were cultured in RPMI 1640 medium supplemented with 2 mM L-glutamine (GIBCO-BRL Life Technologies; Grand Island, N.Y.), 50 μM 2-mercaptoethanol (Sigma, St. Louis, Mo.), 10 mM HEPES (GIBCO-BRL), penicillin (100 U/ml)-streptomycin (100 μg/ml) (GIBCO-BRL), and 5% human AB serum (Gemini Bio-Products, Woodland, Calif.). Cultures were maintained for 7 days in 6-well trays (3×10^6 cells/well) supplemented with 1000 U GM-CSF per ml (Immunex, Seattle, Wash.) and 200 U IL-4 per ml (R&D Systems; Minneapolis, Minn.) at days 0, 2, 4 and 6.
(§2) At day 7 of culture, immature DCs were either left untreated (“immature”, IM), or were stimulated with indicated doses of (i) LPS (E. coli serotype 026:B6, Sigma), (ii) 500 ng/ml of trimeric CD40L (Alexis Biochemicals; San Diego, Calif.), (iii) a cocktail of cytokines (CyC) consisting of IL-6 at 1000 U/ml, TNFα at 10 ng/ml, IL-1β at 10 ng/ml (all from R&D Systems) and prostaglandin E2 (PGE-2) at 1 μg/ml (Sigma), or with (v) non-methylated CpG oligonucleotides (5′ […] 3′) at 30 μg/ml. The sequence of this oligonucleotide is known to induce DC maturation (4), except that it contains an unmodified phosphodiester backbone. In all experiments, DCs were analyzed 48 h after stimulation. All experiments using the rB box were performed in the presence of polymyxin B sufficient to neutralize greater than 10-fold more LPS than present in rB box preparations.
(§3) 48 h post activation, the production of cytokines and chemokines in cell culture supernatants was measured by ELISA (Pierce Boston Technology Center, SearchLight™ Proteome Arrays Multiplex Sample Testing Services, Woburn, Mass.).
as §1, with “DCs, CD 14^+” for “DCs, CD14^+”
(§4) At day 7 of culture, immature DCs were either left untreated, or were stimulated with indicated doses of HMGB1-Bx, HMGB1 peptides, or LPS (E. coli serotype 026:B6, Sigma). In all experiments, DCs were analyzed 48 h after stimulation.

murine BM-DCs [2] = experiment: Cytokine and chemokine secretion by murine bone marrow-derived DCs (ELISA); type: cell-based, mouse; design: key to TNFα / IL-18 / IL-8 / IL-10 / IL-2 / IL-1β / IL-5 / IL-6 / IL-12: + indicates increase; − indicates no change compared to medium; details: for IL-1β / IL-2 / IL-5 / IL-6 / IL-8 / IL-10 / IL-12 / IL-18 / TNFα: Murine DC, ELISA 48 h after exposure, compared to medium
Description: (§5) Bone marrow-derived DCs (BM-DC) were generated using modifications of the original method described by Inaba et al (42). In brief, bone marrow suspensions were incubated with red cell lysis buffer (PUREGENE™ RBC Lysis Solution, Gentra Systems, Minneapolis, Minn.) to remove red blood cells. After washing in media, lymphocytes and Ia-positive cells were killed with a cocktail of mAbs and rabbit complement for 60 min at 37° C. The mAbs were GK1.5 anti-CD4, TIB211 anti-CD8, TIB 120 anti-Ia, and TM 146 anti B220 (The Abs were kindly provided by Dr. Ralph Steinman). The cells were subsequently cultured in media containing 5% FCS and 10 ng/ml recombinant mouse GM-CSF (R&D Systems; Minneapolis, Minn.) for 7 days. For some experiments the cells were further purified at day 7 using CD11c^+-microbeads (Miltenyi Biotech., Auburn, Calif.) according to the manufacturer's instructions.
as §4, §3

murine BM-DCs [3] = experiment: Phenotypic maturation of murine BM-DCs (surface markers, FACS); type: cell-based, mouse; details: CD11c+ gated BM-DCs, 48 h, peptides 200 μg/ml
Description: as §5, §4
1×10^4 DCs were reacted for at least 20 min at 4° C. in 100 μl of PBS/5% FCS/0.1% sodium azide (staining buffer) with fluorescein isothiocyanate (FITC)-conjugated IgG mAb specific for CD86, CD40 and MHC-II (eBioscience). Cells were then washed 4 times with staining buffer, fixed in 10% formaldehyde in PBS (pH 7.2-7.4) and examined by flow cytometry using a FACScan (BD). In all experiments, isotype controls were included using FITC-conjugated irrelevant mAb of the same Ig class.

allogeneic T cells = experiment: Mixed leukocyte reaction, stimulated murine BM-DCs with allogeneic T cells; type: cell-based, mouse; details: BM-DCs from C57/BL6 mice; HMGB1-Bx 50 μg/ml, peptides 200 μg/ml, 48 h; 5-day co-culture
Description: T cells were isolated by negative selection using the mouse SpinSep antibody cocktail from StemCell Technologies (Vancouver, Calif.) according to the manufacturer's instructions. The cell purity of the isolated T cells was routinely ˜99% pure.
To assess levels of T cell activation and proliferation, cells were plated at 10^5 cells per well in a round-bottomed 96-well tray at DC:T cell ratios of 1:120 for 5 days in medium described above. The microcultures were pulsed with (^3H)-thymidine (1 μCi/well) for the final 8 h of culture. Cell cultures were harvested onto glass fiber filters with an automated multiple sample harvester and the amount of isotope incorporation was determined by liquid scintillation β-emission. Responses are reported as mean cpm of thymidine incorporation by triplicate cultures (+/−SEM).

immature DCs = experiment: Phenotypic maturation of human DCs (surface markers, FACS); type: cell-based; details: 48 h, rHMGB1 0.1-10.0 μg/ml
Description: as §1, §2
1×10^4 DCs were reacted for at least 20 min at 4° C. in 100 μl of PBS/5% FCS/0.1% sodium azide (staining buffer) with phycoerythrin (PE)-conjugated IgG specific for CD206, CD54, HLA-DR (all from Beckton Dickinson Immunostaining Systems; San Jose. Calif.) and CD83 (Immunotech-Beckman-Coulter; Marseille, France) or fluorescein isothiocyanate (FITC)-conjugated IgG mAb specific for CD80, CD40 and CD58 (all from Beckton Dickinson Immunostaining Systems; San Jose. Calif.). Cells were then washed 4 times with staining buffer, fixed in 10% formaldehyde in PBS (pH 7.2-7.4) and examined by flow cytometry using a FACScan (BD). In all experiments, isotype controls were included using an appropriate PE- or FITC-conjugated irrelevant mAb of the same Ig class.

[4] = peptides 200 μg/ml, HMGB1-Bx 50 μg/ml, polymyxin B, 48 h
[5] = peptides 200 μg/ml, polymyxin B, 48 h

Row | Substance | secretion of IL-6 [1] | secretion of IL-12 (p70) (murine BM-DCs [2]; [4]) | secretion of IL-8 [1] | secretion of IL-12 (p70) [1] | secretion of IL-18 [1] | secretion of TNF-α [1] | IL-6 [1] | IL-8 [1] | IL-10 [1] | IL-12 [1] | IL-18 [1] | TNFα [1] | T cell stimulatory activity of exposed BM-DCs in mixed lymphocyte reaction (allogeneic T cells) | IL-1β (murine BM-DCs [2]) | IL-2 (murine BM-DCs [2]) | IL-5 (murine BM-DCs [2]) | IL-6 (murine BM-DCs [2]) | IL-10 (murine BM-DCs [2]) | IL-12 (murine BM-DCs [2]) | activation of murine BM-DCs (murine BM-DCs [2]; peptides 200 μg/ml, 48 h) | also measured
1 | CSEYRPKIKGEHPGLSIG [Hp-106 non-bio] | no activity | did not enhance IL-12 secretion |  |  |  |  |  |  |  |  |  |  |  |  |  |  |  |  |  |  | 
2 | CSEYRPKIKGEHPGLSIG [Hp-106] (Biotin-CSEYRPKIKGEHPGLSIG; listed as Homo sapiens) | induced secretion of IL-6 | enhanced secretion | not | increased secretion | increased secretion | increased secretion | + | − | − | + | + | + | activated resting allogeneic T cells | + | + | + | − | − | + | activated | IL-6 release ([1]; Example 1, synthetic B box peptides at 200 μg/ml, FIGS. 3D, E): specifically stimulated IL-6 release; surface expression of maturation markers (murine BM-DCs [3]): did not significantly enhance; IL-8 (murine BM-DCs [2]): +; IL-18 (murine BM-DCs [2]): +; TNFα (murine BM-DCs [2]): +; secretion of IL-2 (murine BM-DCs [2]; [4]): enhanced secretion; secretion of IL-5 (murine BM-DCs [2]; [4]): enhanced secretion; secretion of IL-8 (murine BM-DCs [2]; [4]): enhanced secretion; secretion of IL-18 (murine BM-DCs [2]; [4]): enhanced secretion; secretion of TNF-α (murine BM-DCs [2]; [4]): enhanced secretion; secretion of IL-10 (murine BM-DCs [2]; [5]): enhanced secretion
3 | DPNAPKRPPSAFFLFCSE (Biotin-DPNAPKRPPSAFFLFCSE; listed as Homo sapiens) [Hp-91] | enhanced the IL-6 secretion; also recorded: induced IL-6 secretion |  | not | increased secretion | increased secretion | increased secretion | + | − | − | + | + | + |  | + | + | + | − | − | + | activated | IL-8 (murine BM-DCs [2]): −; IL-18 (murine BM-DCs [2]): −; TNFα (murine BM-DCs [2]): −; secretion of IL-1β (murine BM-DCs [2]; [4]): increased production; secretion of IL-2 (murine BM-DCs [2]; [4]): increased production; secretion of IL-5 (murine BM-DCs [2]; [4]): increased production; secretion of IL-8 (murine BM-DCs [2]; [4]): not; secretion of TNF-α (murine BM-DCs [2]; [4]): not
4 | HPDASVNFSEFSKKCSER (Biotin-HPDASVNFSEFSKKCSER; listed as Homo sapiens) [Hp-31] | induced secretion of IL-6 | enhanced the production | not | increased secretion | increased secretion | increased secretion | + | − | − | + | + | + |  | + | + | + | − | − | + | activated | secretion of IL-1β (murine BM-DCs [2]; [4]): enhanced the production; secretion of IL-2 (murine BM-DCs [2]; [4]): enhanced the production; secretion of IL-5 (murine BM-DCs [2]; [4]): enhanced the production; secretion of IL-10 (murine BM-DCs [2]; [5]): not
5 | SERWKTMSAKEKGKFEDM (Biotin-SERWKTMSAKEKGKFEDM; listed as Homo sapiens) [Hp-46] |  |  |  |  |  |  |  |  |  |  |  |  | did not show enhanced T cell stimulatory activity |  |  |  |  |  |  |  | 
6 | SIGDVAKKLGEMWNNTAA (Biotin-SIGDVAKKLGEMWNNTAA; listed as Homo sapiens) [Hp-121, control peptide] |  |  |  |  |  |  |  |  |  |  |  |  | did not show enhanced T cell stimulatory activity |  |  |  |  |  |  |  | CD40 expression (murine BM-DCs [3]; HMGB1-Bx 50 μg/ml): No altered expression; CD86 expression (murine BM-DCs [3]; HMGB1-Bx 50 μg/ml): No altered expression; MHC-II expression (murine BM-DCs [3]; HMGB1-Bx 50 μg/ml): No altered expression
7 | recombinant HMGB1: Human recombinant HMGB1 expressed in Escherichia coli; full-length sequence SEQ ID NO:1 |  |  |  |  |  |  |  |  |  |  |  |  |  |  |  |  |  |  |  |  | CD86 expression (immature DCs): increases; CD40 expression (immature DCs; rB box 100 μg/ml): increases; CD54 expression (immature DCs; rB box 100 μg/ml): increases; CD83 expression (immature DCs; rB box 100 μg/ml): increases; CD206 (macrophage mannose receptor) expression (immature DCs; rB box 100 μg/ml): decrease; MHCII expression (immature DCs; rB box 100 μg/ml): increases
